Among the data in ChEMBL document CHEMBL4414628, “Engineering Fluorine into Verticillins (Epipolythiodioxopiperazine Alkaloids) via Precursor-Directed Biosynthesis” (J Nat Prod, 2019) are IC50 values, retold here.

Experiment [1] relates to OVCAR-3. Nature of the experiment: Antiproliferative activity against human OVCAR3 cells assessed as inhibition of cell growth incubated for 72 hrs by CellTiter 96 aqueous one solution assay. To be noted: OVCAR-3, 72 h. The class given is functional, cell-based.
The subject of experiment [2] is MDA-MB-231. Nature of the experiment: Antiproliferative activity against human MDA-MB-231 cells assessed as inhibition of cell growth incubated for 72 hrs by CellTiter 96 aqueous one solution assay. In kind it is functional, cell-based. To be noted: MDA-MB-231, 72 h.
In experiment [3] the test system is MDA-MB-435. Nature of the experiment: Antiproliferative activity against human MDA-MB-435 cells assessed as inhibition of cell growth incubated for 72 hrs by CellTiter 96 aqueous one solution assay. The class given is functional, cell-based. To be noted: MDA-MB-435, 72 h.
Experiment [4] addresses Histone-lysine N-methyltransferase 2A (Homo sapiens, UniProt Q03164). Put plainly: Inhibition of human recombinant MLL1 using [3H]S-adenosyl-methionine as substrate.

As usually defined, the IC50 is the midpoint of a concentration-inhibition curve.

Sequence of Histone-lysine N-methyltransferase 2A (Q03164 1-2718 limits assumed): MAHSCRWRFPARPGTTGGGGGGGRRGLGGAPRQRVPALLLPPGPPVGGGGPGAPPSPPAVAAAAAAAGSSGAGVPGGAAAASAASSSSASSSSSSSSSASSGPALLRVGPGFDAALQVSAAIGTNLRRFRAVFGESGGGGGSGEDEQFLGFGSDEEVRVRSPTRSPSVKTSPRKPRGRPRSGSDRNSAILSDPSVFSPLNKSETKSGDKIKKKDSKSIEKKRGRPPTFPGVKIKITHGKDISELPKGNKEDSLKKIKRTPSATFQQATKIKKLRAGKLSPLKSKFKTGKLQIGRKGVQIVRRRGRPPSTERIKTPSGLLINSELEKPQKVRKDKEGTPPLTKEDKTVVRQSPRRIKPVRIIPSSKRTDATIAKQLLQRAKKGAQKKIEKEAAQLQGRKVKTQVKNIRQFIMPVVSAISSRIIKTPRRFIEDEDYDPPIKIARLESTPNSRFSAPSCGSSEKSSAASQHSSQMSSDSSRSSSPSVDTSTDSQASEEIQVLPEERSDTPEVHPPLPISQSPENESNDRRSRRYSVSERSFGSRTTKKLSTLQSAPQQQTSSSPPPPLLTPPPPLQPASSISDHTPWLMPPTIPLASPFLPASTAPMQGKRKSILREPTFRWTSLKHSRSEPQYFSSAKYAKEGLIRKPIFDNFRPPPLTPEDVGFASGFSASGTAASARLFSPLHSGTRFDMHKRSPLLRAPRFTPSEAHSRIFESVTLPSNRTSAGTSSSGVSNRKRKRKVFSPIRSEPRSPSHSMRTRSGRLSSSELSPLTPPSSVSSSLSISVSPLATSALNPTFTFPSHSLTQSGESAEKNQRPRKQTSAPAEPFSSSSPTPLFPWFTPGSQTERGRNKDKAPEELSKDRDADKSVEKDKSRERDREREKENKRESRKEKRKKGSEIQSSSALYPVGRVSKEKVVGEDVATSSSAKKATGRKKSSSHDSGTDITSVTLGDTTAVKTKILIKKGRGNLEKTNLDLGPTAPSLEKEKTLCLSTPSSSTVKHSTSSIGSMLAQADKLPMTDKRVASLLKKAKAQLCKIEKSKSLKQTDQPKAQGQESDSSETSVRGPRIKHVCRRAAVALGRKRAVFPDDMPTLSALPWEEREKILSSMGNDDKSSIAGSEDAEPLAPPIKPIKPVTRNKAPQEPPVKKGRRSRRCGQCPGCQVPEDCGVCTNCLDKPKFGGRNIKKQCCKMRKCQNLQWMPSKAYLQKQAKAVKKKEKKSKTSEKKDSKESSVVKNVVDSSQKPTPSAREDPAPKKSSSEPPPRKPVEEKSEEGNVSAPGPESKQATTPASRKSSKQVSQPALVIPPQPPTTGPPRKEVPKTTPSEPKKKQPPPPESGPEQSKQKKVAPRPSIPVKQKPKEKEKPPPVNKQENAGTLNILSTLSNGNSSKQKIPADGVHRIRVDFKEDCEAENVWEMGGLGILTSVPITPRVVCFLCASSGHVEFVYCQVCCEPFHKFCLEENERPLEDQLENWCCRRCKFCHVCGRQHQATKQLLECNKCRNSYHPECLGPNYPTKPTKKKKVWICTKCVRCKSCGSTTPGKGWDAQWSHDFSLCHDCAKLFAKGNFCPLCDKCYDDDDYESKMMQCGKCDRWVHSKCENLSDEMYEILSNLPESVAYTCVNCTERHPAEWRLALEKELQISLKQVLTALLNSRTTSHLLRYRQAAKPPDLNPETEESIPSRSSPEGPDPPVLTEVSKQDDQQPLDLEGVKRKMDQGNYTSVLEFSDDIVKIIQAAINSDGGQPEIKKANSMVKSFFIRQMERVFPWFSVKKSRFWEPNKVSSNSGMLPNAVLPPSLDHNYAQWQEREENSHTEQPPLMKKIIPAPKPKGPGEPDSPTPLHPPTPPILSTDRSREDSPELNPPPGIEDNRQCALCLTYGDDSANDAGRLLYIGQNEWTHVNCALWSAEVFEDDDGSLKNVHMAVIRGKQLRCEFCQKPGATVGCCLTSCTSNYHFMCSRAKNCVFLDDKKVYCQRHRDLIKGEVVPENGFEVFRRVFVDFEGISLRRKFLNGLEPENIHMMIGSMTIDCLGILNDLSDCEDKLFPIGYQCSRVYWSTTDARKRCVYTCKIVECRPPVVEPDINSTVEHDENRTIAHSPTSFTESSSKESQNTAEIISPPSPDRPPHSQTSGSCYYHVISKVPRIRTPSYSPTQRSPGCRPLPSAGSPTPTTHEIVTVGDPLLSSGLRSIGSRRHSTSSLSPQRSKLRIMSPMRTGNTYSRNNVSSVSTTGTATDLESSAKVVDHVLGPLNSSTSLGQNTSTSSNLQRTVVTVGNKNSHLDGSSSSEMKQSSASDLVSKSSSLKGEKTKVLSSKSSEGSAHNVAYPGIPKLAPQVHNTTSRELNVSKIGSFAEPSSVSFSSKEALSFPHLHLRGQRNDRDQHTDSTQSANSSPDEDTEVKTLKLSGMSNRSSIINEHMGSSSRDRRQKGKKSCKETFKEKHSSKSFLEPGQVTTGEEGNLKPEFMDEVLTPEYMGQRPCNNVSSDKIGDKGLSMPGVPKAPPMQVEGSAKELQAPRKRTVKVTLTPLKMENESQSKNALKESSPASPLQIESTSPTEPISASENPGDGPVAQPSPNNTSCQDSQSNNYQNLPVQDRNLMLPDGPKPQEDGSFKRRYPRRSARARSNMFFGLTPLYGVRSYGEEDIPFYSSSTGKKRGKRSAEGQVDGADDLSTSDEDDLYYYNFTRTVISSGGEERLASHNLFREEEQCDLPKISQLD
Sequence of Histone-lysine N-methyltransferase 2A (Q03164 2719-3969 limits assumed): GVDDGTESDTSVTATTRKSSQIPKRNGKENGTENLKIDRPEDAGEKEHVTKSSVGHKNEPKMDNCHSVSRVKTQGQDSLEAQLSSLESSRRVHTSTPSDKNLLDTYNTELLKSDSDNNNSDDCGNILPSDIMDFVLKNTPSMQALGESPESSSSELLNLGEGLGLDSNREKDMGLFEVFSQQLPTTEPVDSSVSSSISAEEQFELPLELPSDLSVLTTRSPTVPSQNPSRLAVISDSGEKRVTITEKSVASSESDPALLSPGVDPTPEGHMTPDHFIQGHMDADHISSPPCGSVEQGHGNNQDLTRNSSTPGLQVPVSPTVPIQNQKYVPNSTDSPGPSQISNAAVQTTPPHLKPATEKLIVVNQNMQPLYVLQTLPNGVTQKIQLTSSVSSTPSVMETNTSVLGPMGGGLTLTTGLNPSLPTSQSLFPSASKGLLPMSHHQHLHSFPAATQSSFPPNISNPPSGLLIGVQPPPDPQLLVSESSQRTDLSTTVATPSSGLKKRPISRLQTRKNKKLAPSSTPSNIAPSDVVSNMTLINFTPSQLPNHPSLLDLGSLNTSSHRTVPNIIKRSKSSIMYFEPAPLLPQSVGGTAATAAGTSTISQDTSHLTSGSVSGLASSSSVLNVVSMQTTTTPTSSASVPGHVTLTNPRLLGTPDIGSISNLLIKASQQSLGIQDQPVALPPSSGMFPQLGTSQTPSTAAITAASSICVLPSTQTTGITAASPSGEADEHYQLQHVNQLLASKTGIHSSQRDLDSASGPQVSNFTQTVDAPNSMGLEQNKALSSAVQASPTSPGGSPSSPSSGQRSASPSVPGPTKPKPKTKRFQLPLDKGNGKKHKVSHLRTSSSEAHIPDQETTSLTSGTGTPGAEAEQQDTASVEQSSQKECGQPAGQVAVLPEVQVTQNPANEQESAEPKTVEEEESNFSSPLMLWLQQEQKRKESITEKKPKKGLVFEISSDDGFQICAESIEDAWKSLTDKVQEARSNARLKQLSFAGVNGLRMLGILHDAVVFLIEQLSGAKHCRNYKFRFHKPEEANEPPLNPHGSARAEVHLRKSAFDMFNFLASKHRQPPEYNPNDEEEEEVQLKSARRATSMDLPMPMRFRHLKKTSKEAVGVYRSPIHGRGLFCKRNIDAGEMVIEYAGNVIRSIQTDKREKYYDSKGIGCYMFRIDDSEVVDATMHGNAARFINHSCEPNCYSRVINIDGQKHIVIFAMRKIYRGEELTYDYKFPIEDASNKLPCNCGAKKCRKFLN

As to `CC[C@@]12SS[C@]3(C(=O)N1C)[C@@H](O)[C@]1([C@@]45c6cc(F)ccc6N[C@@H]4N4C(=O)[C@]6(CC)SS[C@]4(C(=O)N6C)[C@H]5O)c4ccccc4N[C@@H]1N3C2=O`, the results for the IC50 in experiment [1], in experiment [2] and in experiment [3] were 0.039 µM, 0.046 µM and 0.049 µM, respectively.
For the molecule `CC[C@@]12SS[C@]3(C(=O)N1C)[C@@H](O)[C@]1([C@@]45c6cc(F)ccc6N[C@@H]4N4C(=O)[C@]6(CC)SS[C@]4(C(=O)N6C)[C@H]5O)c4cc(F)ccc4N[C@@H]1N3C2=O`, the IC50 in experiment [1] was determined as 0.92 µM; in experiment [2], 0.84 µM; in experiment [3], 0.83 µM.
The like results for `CC[C@@]12SS[C@]3(C(=O)N1C)[C@@H](O)[C@]1([C@@]45c6ccccc6N[C@@H]4N4C(=O)[C@]6(C)SS[C@]4(C(=O)N6C)[C@H]5O)c4ccccc4N[C@@H]1N3C2=O` were, in that order, 0.03 µM, 0.022 µM and 0.03 µM.
On the same counts, the results for `CN1C(=O)[C@]23SS[C@@]1(C)C(=O)N2[C@H]1Nc2ccc(F)cc2[C@@]1([C@@]12c4cc(F)ccc4N[C@@H]1N1C(=O)[C@]4(C)SS[C@]1(C(=O)N4C)[C@H]2O)[C@@H]3O` are 0.075 µM, 0.059 µM and 0.065 µM.
On the same counts, the results for `CC[C@@]12SS[C@]3(C(=O)N1C)[C@@H](O)[C@]1([C@@]45c6cc(F)ccc6N[C@@H]4N4C(=O)[C@]6(C)SS[C@]4(C(=O)N6C)[C@H]5O)c4ccccc4N[C@@H]1N3C2=O` are 0.1 µM, 0.07 µM and 0.072 µM.
With `CN1C(=O)[C@]23SS[C@@]1(C)C(=O)N2[C@H]1Nc2ccccc2[C@@]1([C@@]12c4ccccc4N[C@@H]1N1C(=O)[C@]4(C)SS[C@]1(C(=O)N4C)[C@H]2O)[C@@H]3O`, the 50% inhibitory concentration (IC50) worked out at 0.8 µM in experiment [4], 0.037 µM in experiment [1], 0.043 µM in experiment [2] and 0.037 µM in experiment [3].
As for `CC[C@@]12SS[C@]3(C(=O)N1C)[C@@H](O)[C@]1([C@@]45c6ccccc6N[C@@H]4N4C(=O)[C@]6(C)SS[C@]4(C(=O)N6C)[C@H]5O)c4cc(F)ccc4N[C@@H]1N3C2=O`, the concentration for half-maximal inhibition (IC50) in experiment [1] was determined as 0.037 µM; in experiment [2] it was 0.037 µM; in experiment [3] it was 0.039 µM.
Take `CC[C@@]12SS[C@]3(C(=O)N1C)[C@@H](O)[C@]1([C@@]45c6ccccc6N[C@@H]4N4C(=O)[C@]6(CC)SS[C@]4(C(=O)N6C)[C@H]5O)c4ccccc4N[C@@H]1N3C2=O`: the half-inhibitory concentration (IC50) in experiment [1] came to 0.1 µM; in experiment [2], 0.071 µM; in experiment [3], 0.088 µM.
In the case of `CC[C@@]12SS[C@]3(C(=O)N1C)[C@@H](O)[C@]1([C@@]45c6cc(F)ccc6N[C@@H]4N4C(=O)[C@]6(C)SS[C@]4(C(=O)N6C)[C@H]5O)c4cc(F)ccc4N[C@@H]1N3C2=O`, the IC50 in experiment [1] is 0.18 µM; in experiment [2], 0.11 µM; in experiment [3], 0.13 µM.
For the molecule `CN1C(=O)[C@]23SS[C@@]1(C)C(=O)N2[C@H]1Nc2ccccc2[C@@]1([C@@]12c4cc(F)ccc4N[C@@H]1N1C(=O)[C@]4(C)SS[C@]1(C(=O)N4C)[C@H]2O)[C@@H]3O`, the IC50 in experiment [1] was found to be 0.18 µM; in experiment [2], 0.23 µM; in experiment [3], 0.24 µM.
On the same counts, the results for `CC(=O)O[C@H]1C(=O)[C@@]2(C)[C@H]([C@H](OC(=O)c3ccccc3)[C@]3(O)C[C@H](OC(=O)[C@H](O)[C@@H](NC(=O)c4ccccc4)c4ccccc4)C(C)=C1C3(C)C)[C@]1(OC(C)=O)CO[C@@H]1C[C@@H]2O` [PACLITAXEL] are 0.005 µM, 0.17 µM and 0.0004 µM.
